Measured values reported in patent US11147219B2, “Methods and systems for growing plants using silicate-based substrates, cultivation of enhanced photosynthetic productivity and photosafening by utilization of exogenous glycopyranosides for endogenous glycopyranosyl-protein derivatives, and formulations, process and systems for the same” (Innovation Hammer, LLC, priority 2011, dated 2021).
Where “and” joins values, the source holds several entries; their conditions need not be identical. Identical values can stand only once.

How the values were obtained:
Format in all cases: in vivo
[1] = system: radish "Cherry Bell" Raphanus sativus L.; test: Greenhouse foliar treatment of radish, root dry weight
Protocol: Plant responses to formulations of an alkyl-α-D-mannopyranose and an electron donating-aryl-α-D-mannopyranose were consistent with preferred binding tendencies to displace glucose from storage. Plants were maintained in automated greenhouses controlled for temperature, light and circulation. Environmental conditions during the course of the studies averaged 13:11 hour L:D photoperiod, 25°:20° C. day:night and 20% to 80% relative humidity. Sunlight was supplemented with electrical illumination to achieve photosynthetically active radiation levels ranging from 350 to 600 μmol photons·m^−2·s^−1 at the level of the phylloplane. Solutions for treated and control plants were applied within an hour, otherwise subjecting all plants to identical conditions consistent with good laboratory practices. Solutions applied to controls included nutrients and surfactants identical to the treatment solution, but without the active compound. General supplementation of foliar formulations included the following: 10-100 mM ammonium salt; 1-6 ppm manganese, Mn-EDTA; and 5-10 ppm calcium, Ca-EDTA. For example, foliar solutions of 0.3 mM p-aminophenylmannopyranoside, hereafter referred to as APM, were supplemented with 23 mM ammonium sulfate, (NH4)2SO4, 3 ppm Mn and 6 ppm Ca; and Nutrient Control contained 23 mM (NH4)2SO4, 3 ppm Mn and 6 ppm Ca. The foliar concentrations of Mn and Ca were higher than those specified previously because of the low volumes of foliar applications relative to hydroponic root immersion volumes, and they were particularly effective in combination with foliar applications of compounds because they supported high rates of productivity in the treated plants without phytotoxicity. Compounds for experimentation included the following: methyl-α-D-mannopyranoside (MeM), APM, and methyl-α-D-glucopyranoside (MeG). All foliar solutions were formulated with 1 gm/liter surfactant blend consisting of 0.5 gram DowCorning Q5211 dispersed into 1.5 grams BASF Pluronic L62. As a matter of course, untreated controls that foliar nutrients and wetting agents were not introducing artifacts. The standard volume for foliar application of experimental treatments was 200 liters/hectare. Identical volumes of foliar spray per tray of plant cultures were applied mechanically in a single pass. Controls were placed in the same location and given identical irrigation and handling as the treated plants. To compare the effects of treatments under tightly controlled conditions, plants were cultured, harvested, cleaned and weighed as per previously described methods. Treated plants were statistically analyzed in comparisons against controls. Each survey population held sufficient replicate sample numbers to make meaningful statistical analyses utilizing SPSS® software. Significance was determined at the 95% confidence interval (CI) of the difference. Counts of population numbers are denoted as “n” values. For experiments, radish “Cherry Bell” Raphanus sativus L., a root crop was planted and treated. […] Therefore, least concentrations were selected for statistical experimentation; and 200 l/ha foliar 1 mM MeM or 0.3 mM APM in nutrient-supplemented formulations were applied to 5 cm tall sprouts; while, Nutrient Controls were given foliar applications of identical solutions without the α-D-glycopyranosides; and no foliar solutions were applied to untreated controls which were otherwise identically cultivated and irrigated. For our quantification experiments, when improvements of root productivity over those of nutrient controls were visibly discernible 12 d after treatment, all populations of controls and treatments were harvested, and individual dry weights of treatment and control populations were analyzed.

[2] = system: Swiss Chard (Beta vulgaris subspecies cicla L., cultivar "Fordhook Giant"); test: Swiss Chard germination and seedling growth on glass microbead substratum; conditions: media containing 100 μM MeM
Protocol: Treatment of seeds and seedlings by aqueous solutions is exemplified by mannosides supplemented with soluble divalent cations in complete mannosides formulations. […] Benefits of such exemplary seed priming methods are as follows: Germination and early growth of radish (Raphanus sativus L., cultivar “Cherry Bell”) and Swiss Chard (Beta vulgaris subspecies cicla L., cultivar “Fordhook® Giant”) were tested for response to α-mannosides supplemented with Ca^2+ and/or Mn^2+. Rapid assays of radish seed germination and growth used hydroponic cultures with no solid medium; longer experiments with Swiss Chard used a 2-5 mm substratum of 700 μm diameter glass microbeads. […] A seed with an emerged radicle >1 mm was recorded as germinated, and germinated seeds were counted daily, until 95% germination. […]

[3] = system: radish (Raphanus sativus L., cultivar "Cherry Bell"); test: Radish seed germination and seedling growth, nutrient omission media; conditions: glycoside alone, no divalent cations
Protocol: Treatment of seeds and seedlings by aqueous solutions is exemplified by mannosides supplemented with soluble divalent cations in complete mannosides formulations. […] Benefits of such exemplary seed priming methods are as follows: Germination and early growth of radish (Raphanus sativus L., cultivar “Cherry Bell”) and Swiss Chard (Beta vulgaris subspecies cicla L., cultivar “Fordhook® Giant”) were tested for response to α-mannosides supplemented with Ca^2+ and/or Mn^2+. Rapid assays of radish seed germination and growth used hydroponic cultures with no solid medium; longer experiments with Swiss Chard used a 2-5 mm substratum of 700 μm diameter glass microbeads. Neutralization of glass microbeads may be undertaken with dilute mildly acidic solution titrated to pH 6; for example, with mineral acids such as hydrochloric acid, sulfuric acid, nitric acid, and the like; organic acids such as uronic, citric, malic, lactic, salicylic, ascorbic, succinic, oxaloacetic, ketoglutaric, fumaric acids, and amino acids, and the like; artificial biological buffering agents such as TRIS, BIS TRIS, MES, MOPS, HEPES, and the like; fertilizers; and most preferably, phosphates; and the most highly preferred compounds are combinations of compounds in a pH 6-buffer that provide major nutrients for plants, such as MAP with DKP or DAP with MKP; and the like. When test medium was added, the glass microbeads formed an even layer, drawing liquid to the surface by capillary action. Seeds were examined to exclude aberrantly large, small, or damaged seeds, and were placed on the surface of the substratum. For experiments using post-germination seedlings, seeds were germinated in deionized water prior to exposure to nutrient media. A seed with an emerged radicle >1 mm was recorded as germinated, and germinated seeds were counted daily, until 95% germination. There was no visible evidence of either desiccation or waterlogging effects. Glass microbeads were removed by immersion and agitation in water, or manually with fine forceps. Harvested plants were oven-dried to determine dry weight. Treatment and control solutions were prepared by dissolving nutrients in deionized ultrapure water.
Growth media were based on omission or inclusion of glycosides and targeted divalent cations. Triose is the abbreviation for α-1,3-α-1,6 mannotriose) and MEM is methyl-α-D-mannoside. Terminology used herein indicates the omission or inclusion of nutrients: 000=control medium with no glycoside, Ca^2+ or Mn^2+; MeMOO=medium with MeM, but no Ca^2+ or Mn^2+; MeMCaO=medium with MeM and Ca^2+, but no Mn^2+, OCaMn=medium with no MeM, but with Ca^2++Mn^2+; and so on. Similar terminology is used for media containing triose. Results cited are means±SE. […]

Radish seedlings = test: Radish seedling assay, immersion in nutrient solution with α-mannosides
Protocol: Plants were cultured in research facilities and consistency of response to treatments was achieved by supplementation with chelated calcium and manganese. All plants were regularly given modified Hoagland water-culture nutrients. […] Controls were placed in the same location and all plants were given the same irrigation, fertilizers, and handling, but without the experimental compounds. Plants were matched to controls and treated within a week of emergence of cotyledon and true leaves. The performance of compounds was evaluated by comparing means of individual dry weights of shoots and roots. Statistics applied two-tailed Student's t-test with p-values significant within 95% confidence intervals. Counts of populations are “n” values and standard error is denoted “±SE.” Specialty chemicals included the following: tetramethyl-β-D-glucoside (TMG); tetraacetyl-D-glucopyranose (TAG); pentaacetyl-α-D-mannopyranose (MP); p-amino-phenyl-α-D-mannoside (APM); methyl-α-D-mannoside (MeM) and methylglucoside (MeG). MPG was synthesized. 2,3,4,6-tetra-O-acetyl-D-mannopyranose (αβ) was utilized. As required, MP and APM were dissolved in a lower aliphatic alcohol prior to dilution in aqueous media.
Assay—Radish seedlings were treated with α-mannosides after emergence of radicles. Seedlings were matched and transferred to Nutrient Control or treatment solutions. Assays were maintained under environmental conditions as follow: Photosynthetically active radiation 100 μEin·m^−2·sec^−1, diel cycle of 16:8 h light:dark, 26:26° C.

paperwhite narcissus = test: Paperwhite narcissus bulbs cultured in 700 μm silicate beads, root treatment; conditions: 16 days after treatment; n=6; p=0.01; controls 30 cc
Protocol: Plants were cultivated under controlled environmental conditions as follow: GE Ecolux® plant and aquarium F40T12 fluorescent illumination, photosynthetically active radiation (PAR) of 100 μEin·m^−2·s^−1, diel cycle of 16:8 h light:dark, 28:26° C., 10% to 20% relative humidity. Indoxyl glycopyranoside (IG) was formulated in water and applied and controls were given equal volumes of water without IG. […] Clear plastic 500 cc containers, perforated for drainage, were filled to a depth of 10 cm with up to 900 grams of microbeads each. Initially, basal plates of bulbs were immersed 1 cm into moistened 700 μm nmd silicate beads to initiate rooting. Within a week, first roots emerged and each bulb was treated with 0.1 ml of aqueous 10 mM IG. Controls were treated with addition of 0.1 ml water to their media. After 8 h uptake of the treatments, fertigation resumed in a manner consistent with pH-control. In another case, 0.3 mM 4-amino-phenyl-α-D-mannopyranoside (APM) was dissolved in water with 3 ppm Mn as EDTA, 6 ppm Ca as EDTA. A solution of the formulation was applied to rooted Crocus. APM-treated plants were compared to plants given identical control formulation without APM. […]
[…] For paperwhites, volumes of entire roots were measured by displacement of water in glass beakers. […]

corn = test: Corn cultured in 700 μm silicate beads, root treatment; conditions: 1 mM IG
Protocol: Individual plants were started from seeds, bulbs, or vegetative clones, inserted into containers of pre-moistened microbeads. Seedlings included ryegrass and corn; bulbs were of Crocus and paperwhite narcissus; and vegetative cuttings were from Coleus. Seeds generally germinated and were selected according to day of emergence of first roots as control and treatment sets. Roots were treated thereafter.
Plants were cultivated under controlled environmental conditions as follow: GE Ecolux® plant and aquarium F40T12 fluorescent illumination, photosynthetically active radiation (PAR) of 100 μEin·m^−2·s^−1, diel cycle of 16:8 h light:dark, 28:26° C., 10% to 20% relative humidity. Indoxyl glycopyranoside (IG) was formulated in water and applied and controls were given equal volumes of water without IG. […] Clear plastic 500 cc containers, perforated for drainage, were filled to a depth of 10 cm with up to 900 grams of microbeads each. Initially, basal plates of bulbs were immersed 1 cm into moistened 700 μm nmd silicate beads to initiate rooting. Within a week, first roots emerged and each bulb was treated with 0.1 ml of aqueous 10 mM IG. Controls were treated with addition of 0.1 ml water to their media. After 8 h uptake of the treatments, fertigation resumed in a manner consistent with pH-control. In another case, 0.3 mM 4-amino-phenyl-α-D-mannopyranoside (APM) was dissolved in water with 3 ppm Mn as EDTA, 6 ppm Ca as EDTA. A solution of the formulation was applied to rooted Crocus. APM-treated plants were compared to plants given identical control formulation without APM. Within five hours of treatment and, through fertigation, thereafter, all container cultures were regularly given equal volumes of nutribead solution. Controls were placed side-by-side and cultivated, likewise.
For all experiments, at 7 d to 14 d after treatment, microbeads were saturated with water. Immediately, individual plants gently were pulled and lifted out of the water-saturated silicate microbeads by hand. […] For paperwhites, volumes of entire roots were measured by displacement of water in glass beakers. […]

Row | Molecule | root mean dry weight over the Nutrient Control ([1]; foliar 1 mM with nutrients) | root weight increase over controls ([1]; foliar 1 mM, 200 l/ha, harvest 12 d after treatment, n=72, p=0.001) | active concentration applied for growth response ([1]; foliar, radish) | germination rates compared with media without the glycoside [2] | effect on plant growth / seedling yields without Ca2+ and Mn2+ [3] | enhancement of mean dry weight over Nutrient Control (Radish seedlings; 25 μM, 48 h) | mean dry weight of whole plants (Radish seedlings; 25 μM, 48 h) | enhancement of mean dry weight over Nutrient Control (Radish seedlings; 50 μM, 48 h) | mean dry weight of whole plants (Radish seedlings; 50 μM, 48 h) | mean dry weight of whole plants (Radish seedlings; 100 μM, 48 h) | visual comparison with Nutrient Control (Radish seedlings; 500 μM, 24 h) | enhancement of mean dry weight over Nutrient Control (Radish seedlings; 500 μM, 48 h) | mean dry weight of whole plants (Radish seedlings; 500 μM, 48 h) | growth response compared to Nutrient Control (visual) (Radish seedlings; 48 h, 1 mM TAM, 100 μM MP, 25 μM to 500 μM MeM, 10 μM APM) | mean root volume (paperwhite narcissus) | taproot total length (corn; after a week, control 5 cm) | dry weight of entire plant (corn; control plant 0.2 g) | dry weight of separated roots (corn; control roots 0.03 g)
1 | CO[C@H]1O[C@H](CO)[C@@H](O)[C@H](O)[C@@H]1O [MeM, methyl-α-D-mannopyranoside] | highly significant (n=72; p=0.001) increase | 30% | 1 mM | consistently higher | no significant effect | 12% and ~11% | 10 mg | 11% | 11 mg | 10.9 mg | enhanced pigmentation and general growth | 11% | 10.3 mg | advanced growth responses | – | – | – | –
2 | Indoxyl glycopyranoside [IG] | – | – | – | – | – | – | – | – | – | – | – | – | – | – | 37 cc per plant | 7 cm | 0.3 g | 0.04 g
